{
  "source": "patent US20170209499A1",
  "about": "“Propolis and Extracts Thereof for the Treatment of Skin Cancers and Improvement of Skin Health” (Manuka Health New Zealand Limited, priority 2014, published 2017)",
  "key": {"COX-2": {"target": "T1, COX-2 (Rattus norvegicus, UniProt P35355)", "T1 construct": "endogenous in cells", "T1 sequence (P35355 18-604)": "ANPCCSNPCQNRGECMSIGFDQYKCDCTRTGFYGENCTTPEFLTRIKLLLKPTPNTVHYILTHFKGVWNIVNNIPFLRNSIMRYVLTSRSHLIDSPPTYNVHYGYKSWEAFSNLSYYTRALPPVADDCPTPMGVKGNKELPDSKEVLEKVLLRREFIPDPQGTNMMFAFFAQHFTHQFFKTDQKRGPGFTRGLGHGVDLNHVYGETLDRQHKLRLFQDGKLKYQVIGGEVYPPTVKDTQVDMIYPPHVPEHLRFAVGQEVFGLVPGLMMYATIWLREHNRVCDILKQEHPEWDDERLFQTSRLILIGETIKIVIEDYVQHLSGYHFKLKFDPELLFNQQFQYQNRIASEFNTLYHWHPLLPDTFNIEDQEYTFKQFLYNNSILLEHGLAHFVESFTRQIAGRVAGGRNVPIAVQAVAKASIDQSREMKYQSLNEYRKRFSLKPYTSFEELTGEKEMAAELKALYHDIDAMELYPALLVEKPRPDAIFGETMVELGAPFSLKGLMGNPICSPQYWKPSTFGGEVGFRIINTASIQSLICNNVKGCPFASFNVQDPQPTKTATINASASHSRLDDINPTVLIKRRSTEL", "test": "Anti-inflammatory assay, LPS-activated rat blood neutrophils, PGE2 ELISA (COX-2 marker)", "type": "cell-based", "conditions": "3 hours", "description": "(§1) The proliferation of cancers can follow an inflammatory pathway. […] This study was performed using LPS-activated neutrophils from rat blood to determine the inhibition of the inflammatory mediators cyclooxygenase enzymes COX I and COX II.\n(§2) Anti-inflammatory assays were carried out as follows. Neutrophils from rat blood were cultured in the presence of the test sample or positive control before being activated into an inflammatory response through the use of lipopolysaccharide (LPS). The incubation period before addition of LPS was 20 minutes. The cell culture supernatants were then tested by ELISA for the presence of the cyclooxygenase COX-1 and COX-2 marker compounds thromboxane TXB2 and prostaglandin PGE2, respectively. […] The test samples were used at 50 μg and 200 μg of solids/ml, and were tested in triplicate. The incubation period for TXB2 and PGE2 was 3 hours."}, "COX-1": {"target": "T2, COX-1 (Rattus norvegicus, UniProt Q63921)", "T2 construct": "endogenous in cells", "T2 sequence (Q63921 27-602)": "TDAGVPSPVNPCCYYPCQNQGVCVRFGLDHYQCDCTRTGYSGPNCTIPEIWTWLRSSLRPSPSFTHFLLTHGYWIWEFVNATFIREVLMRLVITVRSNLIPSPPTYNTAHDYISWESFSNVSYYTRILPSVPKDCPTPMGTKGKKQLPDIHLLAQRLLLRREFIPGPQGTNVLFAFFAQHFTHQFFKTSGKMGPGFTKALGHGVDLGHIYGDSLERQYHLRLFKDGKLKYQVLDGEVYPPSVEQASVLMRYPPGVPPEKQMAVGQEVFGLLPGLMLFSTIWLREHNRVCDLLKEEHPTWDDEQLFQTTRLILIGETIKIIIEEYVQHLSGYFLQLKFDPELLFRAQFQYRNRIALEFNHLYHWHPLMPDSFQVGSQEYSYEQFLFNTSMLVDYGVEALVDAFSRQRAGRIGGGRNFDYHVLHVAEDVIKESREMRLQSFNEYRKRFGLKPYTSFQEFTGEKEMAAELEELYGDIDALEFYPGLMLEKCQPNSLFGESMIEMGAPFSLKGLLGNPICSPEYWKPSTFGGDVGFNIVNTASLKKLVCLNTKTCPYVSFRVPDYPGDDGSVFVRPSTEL", "test": "Anti-inflammatory assay, LPS-activated rat blood neutrophils, TXB2 ELISA (COX-1 marker)", "type": "cell-based", "conditions": "3 hours", "description": "as §1, §2"}},
  "data": [
    {"compound": "OC[C@H]1O[C@@H]2O[C@H]3[C@H](O)[C@@H](O)[C@@H](O[C@H]4[C@H](O)[C@@H](O)[C@@H](O[C@H]5[C@H](O)[C@@H](O)[C@@H](O[C@H]6[C@H](O)[C@@H](O)[C@@H](O[C@H]7[C@H](O)[C@@H](O)[C@@H](O[C@H]8[C@H](O)[C@@H](O)[C@@H](O[C@H]9[C@H](O)[C@@H](O)[C@@H](O[C@H]1[C@H](O)[C@H]2O)O[C@@H]9CO)O[C@@H]8CO)O[C@@H]7CO)O[C@@H]6CO)O[C@@H]5CO)O[C@@H]4CO)O[C@@H]3CO", "note": "[IFS#11, Gamma cyclodextrin]", "values": [
      {"measurement": "COX (II), 50 μg/ml", "setting": "COX-2; 50 μg of solids/ml", "value": "10.1, NS"},
      {"measurement": "COX (II), 200 μg/ml", "setting": "COX-2; 200 μg of solids/ml", "value": "S, NS"},
      {"measurement": "COX (I), 50 μg/ml", "setting": "COX-1; 50 μg of solids/ml", "value": "S, NS"},
      {"measurement": "COX (I), 200 μg/ml", "setting": "COX-1; 200 μg of solids/ml", "value": "2.3, NS"}
    ]}
  ]
}
